{
  "source": "paper PMC8401042",
  "about": "“Non-Toxic Dimeric Peptides Derived from the Bothropstoxin-I Are Potent SARS-CoV-2 and Papain-like Protease Inhibitors” (Molecules, 2021)",
  "key": {"SARS-CoV-2 PLpro [1]": {"molecular_target": "T1, SARS-CoV-2 PLpro (Severe acute respiratory syndrome coronavirus 2, UniProt P0DTD1)", "assay": "SARS-CoV-2 PLpro FRET enzyme inhibition assay", "type": "biochemical"}, "SARS-CoV-2 PLpro [2]": {"molecular_target": "T1, SARS-CoV-2 PLpro", "assay": "Microscale thermophoresis (MST) binding assay", "details": "100 nM labelled PLpro, peptides 0.015 to 500 µM, 50 mM HEPES pH 7.5, 100 mM NaCl, 2 mM DTT, DMSO 5%; triplicate, Hill fit"}, "SARS-CoV-2": {"tested_on": "SARS-CoV-2", "details": "24 h, 100 µM"}, "[3]": {"molecular_target": "SARS-CoV-2 Papain-like protease (PL^pro) (SARS-CoV-2) (UniProt P0DTD1)"}, "[4]": {"molecular_target": "SARS-CoV-2 Papain-like protease (PL^pro) (SARS-CoV-2) (UniProt P0DTD1)", "remark": "listed apart in the source"}},
  "note": "Bridge positions count the residues as written; N and C are the ends. Ends that are not written are not given here. I, II: the chains in the order shown.",
  "data": [
    {"molecule": "I: KKYRYHLKPFKK-NH2 / II: KKYRYHLKPFK / III: KKYRYHLKPF / IV: KKYRYHLKPF (amide I:11-IV:C, I:12-II:C, II:11-III:C) [A11]", "values": [
      {"measurement": "inhibition at 10 µM", "setting": "SARS-CoV-2 PLpro [1]; 10 µM peptide, 70 nM enzyme, 27 µM substrate, 37 °C, […]", "value": 98, "unit": "%"},
      {"measurement": "IC50", "setting": "SARS-CoV-2 PLpro [1]; calculated from IC50 values, Figure 3A, read-out: pIC50 (−logIC50), PLpro (converted)", "value": 1.41, "unit": "µM"},
      {"measurement": "Kd", "setting": "SARS-CoV-2 PLpro [2]", "value": "1 ± 0.2", "unit": "µM"},
      {"measurement": "SARS-CoV-2 % of inhibition at 100 µM", "setting": "SARS-CoV-2", "value": 54, "unit": "%"}
    ]},
    {"molecule": "IFGAILPLALGALKNLIK-NH2", "note": "[Hylin a1]", "values": [
      {"measurement": "percent inhibition of PL^pro activity at 10 µM peptide", "setting": "[3]", "value": 13, "unit": "%"},
      {"measurement": "IC50 of inhibition of PL^pro activity (cleavage of a FRET peptide substrate)", "setting": "[4]", "value": "> 10", "unit": "µM"}
    ]}
  ]
}
